Measurements from ChEMBL document CHEMBL1909046, “DrugMatrix in vitro pharmacology data”.

Tested on: not listed separately
Assay: DRUGMATRIX: Interleukin IL-1 radioligand binding (ligand: [125I] interleukin 1beta)
Format: cell membranes, Membrane
Conditions: nih3t3; Not Active = under 50% inhibition at 10 µM

Compound	IC50	Ki
CC=CC(=O)N(CC)c1ccccc1C	Not Active	Not Active
O=C1NC(=O)C(c2ccccc2)(c2ccccc2)N1 [PHENYTOIN]	Not Active	Not Active
COc1ccc2c(c1)c(CC(=O)OCC(=O)O)c(C)n2C(=O)c1ccc(Cl)cc1 [ACEMETACIN]	Not Active	Not Active
CC1(C)S[C@@H]2[C@H](NC(=O)[C@H](NC(=O)N3CCNC3=O)c3ccccc3)C(=O)N2[C@H]1C(=O)O [AZLOCILLIN]	Not Active	Not Active

Biological target: Mitogen-activated protein kinase 3 (Homo sapiens, UniProt P27361)
Assay: DRUGMATRIX: Protein Serine/Threonine Kinase, ERK1 enzyme inhibition (substrate: Myelin Basic Protein)
Parameters: species or system Escherichia coli
Conditions: Not Active = under 50% inhibition at 10 µM

Mitogen-activated protein kinase 3, sequence (P27361 whole entry): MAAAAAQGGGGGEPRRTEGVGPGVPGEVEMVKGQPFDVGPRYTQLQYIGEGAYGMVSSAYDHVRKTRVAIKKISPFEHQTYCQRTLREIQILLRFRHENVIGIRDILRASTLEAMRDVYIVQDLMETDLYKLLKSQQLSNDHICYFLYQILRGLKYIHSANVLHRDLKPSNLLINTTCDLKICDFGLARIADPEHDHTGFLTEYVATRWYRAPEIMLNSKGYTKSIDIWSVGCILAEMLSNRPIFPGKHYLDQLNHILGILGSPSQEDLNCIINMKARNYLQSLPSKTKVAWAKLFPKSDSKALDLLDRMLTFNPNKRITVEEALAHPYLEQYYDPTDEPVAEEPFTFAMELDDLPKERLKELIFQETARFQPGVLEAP

Compound	IC50
CC=CC(=O)N(CC)c1ccccc1C	Not Active
O=C1NC(=O)C(c2ccccc2)(c2ccccc2)N1 [PHENYTOIN]	Not Active
COc1ccc2c(c1)c(CC(=O)OCC(=O)O)c(C)n2C(=O)c1ccc(Cl)cc1 [ACEMETACIN]	Not Active
CC1(C)S[C@@H]2[C@H](NC(=O)[C@H](NC(=O)N3CCNC3=O)c3ccccc3)C(=O)N2[C@H]1C(=O)O [AZLOCILLIN]	Not Active

Biological target: Substance-P receptor (Homo sapiens, UniProt P25103); also: in other assays of this panel Not Active means under 50% inhibition at 10 µM
Assay: not given
Format: cell membranes, CHO, Membrane
Conditions: cho

Substance-P receptor, sequence (P25103 whole entry): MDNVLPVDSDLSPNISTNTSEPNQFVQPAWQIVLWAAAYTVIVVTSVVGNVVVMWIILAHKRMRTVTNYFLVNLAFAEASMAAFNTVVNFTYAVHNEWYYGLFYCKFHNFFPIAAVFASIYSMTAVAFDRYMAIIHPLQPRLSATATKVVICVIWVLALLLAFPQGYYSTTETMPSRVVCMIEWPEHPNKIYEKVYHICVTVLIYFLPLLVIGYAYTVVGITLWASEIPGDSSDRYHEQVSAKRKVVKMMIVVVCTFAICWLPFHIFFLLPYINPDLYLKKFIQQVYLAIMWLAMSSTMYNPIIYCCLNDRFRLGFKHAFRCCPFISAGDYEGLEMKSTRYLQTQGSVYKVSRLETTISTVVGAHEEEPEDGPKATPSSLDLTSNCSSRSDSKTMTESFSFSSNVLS

Compound	IC50
CC=CC(=O)N(CC)c1ccccc1C	Not Active
O=C1NC(=O)C(c2ccccc2)(c2ccccc2)N1 [PHENYTOIN]	Not Active
COc1ccc2c(c1)c(CC(=O)OCC(=O)O)c(C)n2C(=O)c1ccc(Cl)cc1 [ACEMETACIN]	Not Active
CC1(C)S[C@@H]2[C@H](NC(=O)[C@H](NC(=O)N3CCNC3=O)c3ccccc3)C(=O)N2[C@H]1C(=O)O [AZLOCILLIN]	Not Active

Tested on: not listed separately
Assay: DRUGMATRIX: Potassium Channel [KATP] radioligand binding (ligand: [3H] Glyburide)
Format: cell membranes, Membrane
Conditions: hit-t15; Not Active = under 50% inhibition at 10 µM

Compound	IC50	Ki
CC=CC(=O)N(CC)c1ccccc1C	Not Active	Not Active
O=C1NC(=O)C(c2ccccc2)(c2ccccc2)N1 [PHENYTOIN]	Not Active	Not Active
COc1ccc2c(c1)c(CC(=O)OCC(=O)O)c(C)n2C(=O)c1ccc(Cl)cc1 [ACEMETACIN]	Not Active	Not Active
CC1(C)S[C@@H]2[C@H](NC(=O)[C@H](NC(=O)N3CCNC3=O)c3ccccc3)C(=O)N2[C@H]1C(=O)O [AZLOCILLIN]	Not Active	Not Active

Biological target: T1, Substance-K receptor (Homo sapiens, UniProt P21452); also: in other assays of this panel Not Active means under 50% inhibition at 10 µM
T1 sequence (P21452 whole entry): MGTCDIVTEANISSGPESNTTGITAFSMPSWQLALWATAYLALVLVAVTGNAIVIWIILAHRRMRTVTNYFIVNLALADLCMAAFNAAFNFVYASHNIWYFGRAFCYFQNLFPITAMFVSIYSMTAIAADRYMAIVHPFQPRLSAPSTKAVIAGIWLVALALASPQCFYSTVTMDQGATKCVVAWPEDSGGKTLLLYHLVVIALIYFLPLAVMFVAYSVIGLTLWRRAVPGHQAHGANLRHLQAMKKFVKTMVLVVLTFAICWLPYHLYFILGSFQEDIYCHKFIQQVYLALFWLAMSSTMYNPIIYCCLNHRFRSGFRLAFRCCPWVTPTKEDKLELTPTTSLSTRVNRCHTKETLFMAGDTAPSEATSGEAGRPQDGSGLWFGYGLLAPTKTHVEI
Assay: not given
Format: cell membranes, CHO, Membrane
Conditions: cho

Compound	IC50
CC=CC(=O)N(CC)c1ccccc1C	Not Active
O=C1NC(=O)C(c2ccccc2)(c2ccccc2)N1 [PHENYTOIN]	Not Active
COc1ccc2c(c1)c(CC(=O)OCC(=O)O)c(C)n2C(=O)c1ccc(Cl)cc1 [ACEMETACIN]	Not Active
CC1(C)S[C@@H]2[C@H](NC(=O)[C@H](NC(=O)N3CCNC3=O)c3ccccc3)C(=O)N2[C@H]1C(=O)O [AZLOCILLIN]	Not Active

Biological target: T2, Calcitonin receptor (Homo sapiens, UniProt P30988); also: in other assays of this panel Not Active means under 50% inhibition at 10 µM
T2 sequence (P30988 whole entry): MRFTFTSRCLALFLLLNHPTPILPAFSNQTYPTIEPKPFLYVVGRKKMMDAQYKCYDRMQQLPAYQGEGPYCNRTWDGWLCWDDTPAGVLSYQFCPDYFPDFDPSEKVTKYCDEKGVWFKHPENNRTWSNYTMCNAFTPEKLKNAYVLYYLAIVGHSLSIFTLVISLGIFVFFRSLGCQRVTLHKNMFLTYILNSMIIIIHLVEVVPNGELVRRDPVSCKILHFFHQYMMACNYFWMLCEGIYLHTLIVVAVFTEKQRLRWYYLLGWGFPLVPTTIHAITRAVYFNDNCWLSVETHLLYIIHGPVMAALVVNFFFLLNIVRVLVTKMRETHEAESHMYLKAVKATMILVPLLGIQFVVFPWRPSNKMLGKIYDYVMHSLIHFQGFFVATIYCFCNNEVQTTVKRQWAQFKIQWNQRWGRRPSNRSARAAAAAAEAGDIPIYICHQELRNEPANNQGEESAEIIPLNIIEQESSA
Assay: not given
Format: cell membranes, Membrane
Conditions: t47d

Compound	IC50
CC=CC(=O)N(CC)c1ccccc1C	Not Active
O=C1NC(=O)C(c2ccccc2)(c2ccccc2)N1 [PHENYTOIN]	Not Active
COc1ccc2c(c1)c(CC(=O)OCC(=O)O)c(C)n2C(=O)c1ccc(Cl)cc1 [ACEMETACIN]	Not Active
CC1(C)S[C@@H]2[C@H](NC(=O)[C@H](NC(=O)N3CCNC3=O)c3ccccc3)C(=O)N2[C@H]1C(=O)O [AZLOCILLIN]	Not Active

Biological target: Adenosine receptor A2a (Homo sapiens, UniProt P29274)
Assay: DRUGMATRIX: Adenosine A2A radioligand binding (ligand: […])
Format: cell membranes, HEK293, Membrane
Conditions: hek293; Not Active = under 50% inhibition at 10 µM

Adenosine receptor A2a, sequence (P29274 whole entry): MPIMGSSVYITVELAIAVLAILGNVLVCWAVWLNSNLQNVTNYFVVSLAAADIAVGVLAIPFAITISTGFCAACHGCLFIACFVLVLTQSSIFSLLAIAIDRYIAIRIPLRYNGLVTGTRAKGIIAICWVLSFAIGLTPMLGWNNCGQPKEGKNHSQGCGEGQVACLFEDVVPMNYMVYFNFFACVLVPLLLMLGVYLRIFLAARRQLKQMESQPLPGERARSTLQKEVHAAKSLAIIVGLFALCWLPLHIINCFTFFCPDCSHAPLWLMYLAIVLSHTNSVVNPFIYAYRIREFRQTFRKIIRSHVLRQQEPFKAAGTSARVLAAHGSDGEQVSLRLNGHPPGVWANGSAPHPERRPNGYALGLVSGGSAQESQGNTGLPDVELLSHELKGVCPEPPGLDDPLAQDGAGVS

Compound	IC50
CC=CC(=O)N(CC)c1ccccc1C	Not Active
O=C1NC(=O)C(c2ccccc2)(c2ccccc2)N1 [PHENYTOIN]	Not Active
COc1ccc2c(c1)c(CC(=O)OCC(=O)O)c(C)n2C(=O)c1ccc(Cl)cc1 [ACEMETACIN]	Not Active
CC1(C)S[C@@H]2[C@H](NC(=O)[C@H](NC(=O)N3CCNC3=O)c3ccccc3)C(=O)N2[C@H]1C(=O)O [AZLOCILLIN]	Not Active

Biological target: C-C chemokine receptor type 5 (Homo sapiens, UniProt P51681); also: in other assays of this panel Not Active means under 50% inhibition at 10 µM
Assay: not given
Format: cell membranes, Membrane
Conditions: hek293

C-C chemokine receptor type 5, sequence (P51681 whole entry): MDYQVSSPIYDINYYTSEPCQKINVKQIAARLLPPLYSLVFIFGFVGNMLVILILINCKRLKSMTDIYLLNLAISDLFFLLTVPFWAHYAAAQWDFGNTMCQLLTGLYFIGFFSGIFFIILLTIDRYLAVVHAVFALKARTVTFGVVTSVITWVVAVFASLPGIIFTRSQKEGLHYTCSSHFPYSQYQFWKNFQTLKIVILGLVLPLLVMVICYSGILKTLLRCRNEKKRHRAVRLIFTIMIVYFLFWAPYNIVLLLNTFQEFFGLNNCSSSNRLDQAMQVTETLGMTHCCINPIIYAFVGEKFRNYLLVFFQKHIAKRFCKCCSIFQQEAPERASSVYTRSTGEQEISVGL

Compound	IC50
CC=CC(=O)N(CC)c1ccccc1C	Not Active
O=C1NC(=O)C(c2ccccc2)(c2ccccc2)N1 [PHENYTOIN]	Not Active
COc1ccc2c(c1)c(CC(=O)OCC(=O)O)c(C)n2C(=O)c1ccc(Cl)cc1 [ACEMETACIN]	Not Active
CC1(C)S[C@@H]2[C@H](NC(=O)[C@H](NC(=O)N3CCNC3=O)c3ccccc3)C(=O)N2[C@H]1C(=O)O [AZLOCILLIN]	Not Active

Tested on: not listed separately
Assay: DRUGMATRIX: GABAA, Muscimol, Central radioligand binding (ligand: [3H] Muscimol)
Format: cell membranes, Rattus norvegicus, Wistar, Brain, Membrane
Conditions: Not Active = under 50% inhibition at 10 µM

Compound	IC50	Ki
CC=CC(=O)N(CC)c1ccccc1C	Not Active	Not Active
O=C1NC(=O)C(c2ccccc2)(c2ccccc2)N1 [PHENYTOIN]	Not Active	Not Active
COc1ccc2c(c1)c(CC(=O)OCC(=O)O)c(C)n2C(=O)c1ccc(Cl)cc1 [ACEMETACIN]	Not Active	Not Active
CC1(C)S[C@@H]2[C@H](NC(=O)[C@H](NC(=O)N3CCNC3=O)c3ccccc3)C(=O)N2[C@H]1C(=O)O [AZLOCILLIN]	Not Active	Not Active

Biological target: T3, Angiotensin-converting enzyme (Oryctolagus cuniculus, UniProt P12822)
T3 sequence (P12822 whole entry): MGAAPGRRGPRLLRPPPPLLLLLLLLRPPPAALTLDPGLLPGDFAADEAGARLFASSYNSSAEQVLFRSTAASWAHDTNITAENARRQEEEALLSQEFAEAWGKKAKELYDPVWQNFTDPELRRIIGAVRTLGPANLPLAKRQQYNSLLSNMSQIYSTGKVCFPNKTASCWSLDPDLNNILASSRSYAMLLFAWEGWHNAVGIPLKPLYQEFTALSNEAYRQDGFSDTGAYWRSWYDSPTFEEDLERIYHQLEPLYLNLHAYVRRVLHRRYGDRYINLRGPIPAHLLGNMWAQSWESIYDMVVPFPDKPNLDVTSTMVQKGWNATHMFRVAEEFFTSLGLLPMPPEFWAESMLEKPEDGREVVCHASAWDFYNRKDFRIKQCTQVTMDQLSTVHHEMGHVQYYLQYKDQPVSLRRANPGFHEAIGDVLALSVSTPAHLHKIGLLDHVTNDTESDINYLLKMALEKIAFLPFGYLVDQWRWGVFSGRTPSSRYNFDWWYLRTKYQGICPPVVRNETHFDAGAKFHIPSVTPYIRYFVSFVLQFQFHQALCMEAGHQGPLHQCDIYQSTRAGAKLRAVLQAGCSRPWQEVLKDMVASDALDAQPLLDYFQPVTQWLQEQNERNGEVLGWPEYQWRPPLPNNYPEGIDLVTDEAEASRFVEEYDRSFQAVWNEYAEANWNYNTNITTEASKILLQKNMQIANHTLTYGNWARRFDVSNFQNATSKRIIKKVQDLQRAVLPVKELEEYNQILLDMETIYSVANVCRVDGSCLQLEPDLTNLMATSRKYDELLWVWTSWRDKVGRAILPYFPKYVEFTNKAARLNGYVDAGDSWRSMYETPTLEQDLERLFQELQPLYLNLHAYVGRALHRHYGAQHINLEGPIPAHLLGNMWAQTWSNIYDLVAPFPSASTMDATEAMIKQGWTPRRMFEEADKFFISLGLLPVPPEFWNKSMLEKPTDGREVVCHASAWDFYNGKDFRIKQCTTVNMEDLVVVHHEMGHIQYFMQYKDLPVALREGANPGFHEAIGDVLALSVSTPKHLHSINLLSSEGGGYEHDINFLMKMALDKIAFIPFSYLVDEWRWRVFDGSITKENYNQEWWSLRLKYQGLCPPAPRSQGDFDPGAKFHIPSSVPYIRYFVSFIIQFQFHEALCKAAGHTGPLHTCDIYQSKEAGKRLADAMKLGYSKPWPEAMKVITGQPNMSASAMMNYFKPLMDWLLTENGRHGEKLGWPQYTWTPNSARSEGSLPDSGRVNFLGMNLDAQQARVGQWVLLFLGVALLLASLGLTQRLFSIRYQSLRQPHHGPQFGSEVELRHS
Assay: biochemical
Format: tissue-based, Lung
Conditions: not given

Compound	IC50
CC=CC(=O)N(CC)c1ccccc1C	Not Active
O=C1NC(=O)C(c2ccccc2)(c2ccccc2)N1 [PHENYTOIN]	Not Active
COc1ccc2c(c1)c(CC(=O)OCC(=O)O)c(C)n2C(=O)c1ccc(Cl)cc1 [ACEMETACIN]	Not Active
CC1(C)S[C@@H]2[C@H](NC(=O)[C@H](NC(=O)N3CCNC3=O)c3ccccc3)C(=O)N2[C@H]1C(=O)O [AZLOCILLIN]	Not Active

Biological target: Glycine receptor (Rattus norvegicus, UniProt P22771+P24524+P07727+P20781); also: in other assays of this panel Not Active means under 50% inhibition at 10 µM
Assay: not given
Format: cell membranes, Wistar, Spinal cord, Membrane
Conditions: not given

Compound	IC50
CC=CC(=O)N(CC)c1ccccc1C	Not Active
O=C1NC(=O)C(c2ccccc2)(c2ccccc2)N1 [PHENYTOIN]	Not Active
COc1ccc2c(c1)c(CC(=O)OCC(=O)O)c(C)n2C(=O)c1ccc(Cl)cc1 [ACEMETACIN]	Not Active
CC1(C)S[C@@H]2[C@H](NC(=O)[C@H](NC(=O)N3CCNC3=O)c3ccccc3)C(=O)N2[C@H]1C(=O)O [AZLOCILLIN]	Not Active

Tested on: not listed separately
Assay: DRUGMATRIX: Nicotinic Acetylcholine radioligand binding (ligand: [125I] Epibatidine)
Format: cell membranes, Membrane
Conditions: imr-32; Not Active = under 50% inhibition at 10 µM

Compound	IC50	Ki
CC=CC(=O)N(CC)c1ccccc1C	Not Active	Not Active
O=C1NC(=O)C(c2ccccc2)(c2ccccc2)N1 [PHENYTOIN]	Not Active	Not Active
COc1ccc2c(c1)c(CC(=O)OCC(=O)O)c(C)n2C(=O)c1ccc(Cl)cc1 [ACEMETACIN]	Not Active	Not Active
CC1(C)S[C@@H]2[C@H](NC(=O)[C@H](NC(=O)N3CCNC3=O)c3ccccc3)C(=O)N2[C@H]1C(=O)O [AZLOCILLIN]	Not Active	Not Active
